Earlier results, collected in patent US6951873B1, “Methods for treating age-related behavioral disorders in companion animals” (priority 1999, dated 2005).

Test system: aged-impaired dogs
Conditions: spatial memory model sensitive to age-dependent cognitive impairment

## C#CCN(C)[C@H](C)Cc1ccccc1.Cl [selegiline chloride]
  Performance of aged-impaired dogs on this test: improved
